The compounds below were run against T1, Casein Kinase Iε (Homo sapiens, UniProt P49674) (assay: Casein Kinase Epsilon 33P-ATP Filter Plate Assay).
T1 construct: made in house
Type: biochemical
Source text: Casein Kinase Epsilon ^33P-ATP Filter Plate Assay for Screening CKIε Inhibitors
Purpose: This assay measures the ability of compounds to inhibit the phosphorylation of the substrate casein by the enzyme casein kinase 1ε using an in vitro ^33P-ATP filtration assay. […] Materials:
Equipment: • Beckman Biomek 2000 Liquid Handling Robot • Beckman Multimek 96 Automated 96 Channel Pipettor • Millipore Vacuum Manifold Basic Kit # MAVM0960R • Titertek Multidrop Liquid Dispenser • Packard TopCount NXT Liquid Scintillation Counter
Enzyme: • Casein Kinase 1ε final concentration 0.58 mg/ml obtained from fermentation and purification processes as are well known to one skilled in the art. The above are stored as 100 μL aliquots at minus 80° C.
Compounds: • Supply compounds for testing as frozen 10 mM compound stock dissolved in 100% DMSO. Assay Conditions:
Final total assay volume per well is equal to 50 μL that one prepares as follows: • 5 μL of diluted compound stock (10, 1, 0.1, 0.01 or 0.001 μM), • 5 μL of dephosphorylated casein final concentration 0.2 μg/μL, • 20 μL of CK1ε final concentration 3 ng/μL, and • 20 μL of γ-^33P-ATP final concentration 0.02 μCi/μL mixed with cold ATP (10 μM final). Methodology: • 1. Prepare 500 mL of fresh assay buffer: 50 mM Tris pH 7.5, 10 mM MgCl2, 2 mM DTT and 1 mM EGTA • 2. Obtain compounds to be evaluated as 10 μL of 10 mM stock dissolved in 100% DMSO. Use a Biomek 2000 liquid handling robot, make serial dilutions to yield 10, 1, 0.1, 0.01 and 0.001 μM final compound dilutions added as 5 μL additions to Falcon U bottom plates. […] A routine screening assay will consist of 32 compounds, which equals 4 assay plates. • 3. Assay plate maps are set up according to the following pattern CK1ePlateMap.xls
• 4. Add 5 μL of compound as indicated, then add 5 μL of dephosphorylated casein (dissolved in distilled H20)(0.2 μg/μL) and 20 μL CK1ε (3 ng/μL) to the appropriate wells. • 5. Finally add 20 μL γ-^33P-ATP (0.02 μCi/μL)/10 μM cold ATP (equals approximately 2×10^6 CPM per well). • 6. Vortes the Falcon U-Bottom assay plate containing the above 50 μL reaction volume and then incubate at room temperature for 2 hours. • 7. At the end of 2 hours, stop the reaction by the addition of 65 μL of ice cold 2 mM cold ATP (made up in assay buffer) to the assay plates using a Beckman Multimek. • 8. At the same time add 25 μL 100% ice cold TCA made up in distilled H20 to a matching number of Millipore MAPH filter plates. • 9. Using a handheld 8-channel pipettor, transfer 100 μL of the reaction mixture from the Falcon U-Bottom Plate to the Millipore MAPH filter plates presoaked with TCA. • 10. Mix the Millipore MAPH filter plates gently and allow to sit at room temperature for at least 30 minutes to precipitate the proteins. • 11. After 30 minutes, place the filter plates on a Millipore vacuum manifold and filter at no more than 8 mm Hg as the MAPH filters tend to “air lock” at higher vacuum settings. • 12. Wash the filter plates sequentially and filter with 2×150 μL 20% TCA, 2×150 μL 10% TCA and 2×150 μL 5% TCA (total of 6 washes per plate/900 μL per well). • 13. Allow the plates to dry overnight at room temperature. The next day add 40 μL Packard Microscint-20 Scintillation Fluid per well using a Titertek Multidrop dispenser; seal the plates and count for 2 minutes/well in a Packard Topcount NXT Scintillation Counter (to provide CPM values/well). Calculation: • 1. Import Counts Per Minute (CPM) data into a proprietary data calculation and archiving database (Activity Base by IDBS version 5.0). • 2. Column 1 for each plate reflects total phosphorylation activity of the enzyme in the absence of any inhibiting compound and thus represents 100%. Column 12 reflects any nonspecific phosphorylation/retained radioactivity activity in the absence of inhibiting compound and enzyme.

T1 sequence (P49674 whole entry): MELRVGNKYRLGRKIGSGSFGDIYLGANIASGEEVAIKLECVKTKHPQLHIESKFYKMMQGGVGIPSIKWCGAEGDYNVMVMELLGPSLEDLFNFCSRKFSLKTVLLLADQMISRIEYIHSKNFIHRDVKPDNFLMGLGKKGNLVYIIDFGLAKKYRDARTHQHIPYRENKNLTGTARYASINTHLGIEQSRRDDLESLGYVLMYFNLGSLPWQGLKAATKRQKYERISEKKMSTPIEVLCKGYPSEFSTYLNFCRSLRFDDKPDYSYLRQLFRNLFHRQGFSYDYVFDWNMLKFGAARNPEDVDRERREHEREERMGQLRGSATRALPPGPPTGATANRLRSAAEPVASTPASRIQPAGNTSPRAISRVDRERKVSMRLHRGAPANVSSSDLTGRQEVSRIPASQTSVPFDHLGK

| Ki | SMILES |
| --- | --- |
| 64 nM | NC(=O)c1[nH]c2sccc2c1Sc1ccccn1 [IIa, 4-(pyridin-2-ylsulfanyl)-6H-thieno[2,3-b]pyrrole-5-carboxylic acid amide] |
| 1070 nM | NC(=O)c1[nH]c2sccc2c1Sc1ccncc1 [IId, 4-(Pyridin-4-ylsulfanyl)-6H-thieno[2,3-b]-pyrrole-5-carboxylic acid amide] |
| 109 nM | NC(=O)c1[nH]c2sccc2c1Sc1cc(Cl)cc(Cl)c1 [IIe, 4-(3,5-Dichlorophenyl-sulfanyl)-6H-thieno[2,3-b]pyrrole-5-carboxylic acid amide] |
| 1450 nM | NC(=O)c1[nH]c2sccc2c1Sc1cccs1 [IIf, 4-(Thiophen-2-yl-sulfanyl)-6H-thieno[2,3-b]pyrrole-5-carboxylic acid amide] |
| 24.7 nM | COc1cccc(Sc2c(C(N)=O)[nH]c3sccc23)c1 [IIh, 4-(3-Methoxyphenyl-sulfanyl)-6H-thieno[2,3-b]pyrrole-5-carboxylic acid amide] |
| 112 nM | NC(=O)c1[nH]c2sccc2c1Sc1cccc(Cl)c1 [IIj, 4-(3-Chlorophenyl-sulfanyl)-6H-thieno[2,3-b]pyrrole-5-carboxylic acid amide] |
| 70.6 nM | Cc1cccc(Sc2c(C(N)=O)[nH]c3sccc23)c1 [IIk, 4-(3-Methylphenyl-sulfanyl)-6H-thieno[2,3-b]pyrrole-5-carboxylic acid amide] |
| 68 nM | COc1cccc(Sc2c(C(N)=O)[nH]c3sc(C)nc23)c1 [IIm, 6-(3-Methoxyphenyl-sulfanyl)-2-methyl-4H-pyrrolo[3,2-d]thiazole-5-carboxylic acid amide] |
| 4030 nM | Cc1nc2c(Sc3cccc(OC(F)(F)F)c3)c(C(N)=O)[nH]c2s1 [IIp, 6-(3-Trifluoromethoxy-phenylsulfanyl)-2-methyl-4H-pyrrolo[3,2-d]thiazole-5-carboxylic acid amide] |
| 334 nM | NC(=O)c1[nH]c2sc(Sc3ccccc3)nc2c1Sc1ccccc1 [IIq, 2,6-Bis-phenylsulfanyl-4H-pyrrolo[3,2-d]thiazole-5-carboxylic acid amide] |
| 333 nM | COc1cccc(Sc2nc3c(Sc4cccc(OC)c4)c(C(N)=O)[nH]c3s2)c1 [IIr, 2,6-Bis-(3-methoxy-phenylsulfanyl)-4H-pyrrolo[3,2-d]thiazole-5-carboxylic acid amide] |
| 544 nM | NC(=O)c1[nH]c2ccsc2c1Sc1ccccc1 [Ia, 6-Phenylsulfanyl-4H-thieno[3,2-b]pyrrole-5-carboxylic acid amide] |
| 157 nM | NC(=O)c1[nH]c2ccsc2c1Sc1cccc(F)c1 [Ib, 6-(3-Fluorophenyl-sulfanyl)-4H-thieno[3,2-b]pyrrole-5-carboxylic acid amide] |
| > 10000 nM | NC(=O)c1[nH]c2ccsc2c1Sc1ccc(Cl)cc1 [Ic, 6-(4-Chlorophenyl-sulfanyl)-4H-thieno[3,2-b]pyrrole-5-carboxylic acid amide] |
| 159 nM | NC(=O)c1[nH]c2ccsc2c1Sc1ccccn1 [Ie, 6-(Pyridin-2-ylsulfanyl)-4H-thieno[3,2-b]pyrrole-5-carboxylic acid amide] |
| 3090 nM | Cc1ccc(Sc2c(C(N)=O)[nH]c3ccsc23)cc1 [If, 6-p-Tolylsulfanyl-4H-thieno[3,2-b]pyrrole-5-carboxylic acid amide] |
| 915 nM | NC(=O)c1[nH]c2ccsc2c1Sc1cccs1 [Ig, 6-(Thiophen-2-yl-sulfanyl)-4H-thieno[3,2-b]pyrrole-5-carboxylic acid amide] |

| Ki | SMILES |
| --- | --- |
| 71 nM | NC(=O)c1[nH]c2ccsc2c1Sc1cc(Cl)cc(Cl)c1 [Ih, 6-(3,5-Dichloro-phenylsulfanyl)-4H-thieno[3,2-b]pyrrole-5-carboxylic acid amide] |
| 1680 nM | NC(=O)c1[nH]c2ccsc2c1Sc1ccncc1 [Ii, 6-(Pyridin-4-ylsulfanyl)-4H-thieno[3,2-b]pyrrole-5-carboxylic acid amide] |
| 116 nM | Cc1cccc(Sc2c(C(N)=O)[nH]c3ccsc23)c1 [Ij, 6-m-Tolylsulfanyl-4H-thieno[3,2-b]pyrrole-5-carboxylic acid amide] |
| 468 nM | Cc1ccccc1Sc1c(C(N)=O)[nH]c2ccsc12 [Ik, 6-o-Tolylsulfanyl-4H-thieno[3,2-b]pyrrole-5-carboxylic acid amide] |
| 324 nM | NC(=O)c1[nH]c2ccsc2c1Sc1cccc(Cl)c1Cl [Il, 6-(2,3-Dichloro-phenylsulfanyl)-4H-thieno[3,2-b]pyrrole-5-carboxylic acid amide] |
| 1270 nM | NC(=O)c1[nH]c2ccsc2c1Sc1cc(Cl)ccc1Cl [Im, 6-(2,5-Dichloro-phenylsulfanyl)-4H-thieno[3,2-b]pyrrole-5-carboxylic acid amide] |
| 238 nM | CCc1ccccc1Sc1c(C(N)=O)[nH]c2ccsc12 [In, 6-(2-Ethylphenylsulfanyl)-4H-thieno[3,2-b]pyrrole-5-carboxylic acid amide] |
| 78.7 nM | NC(=O)c1[nH]c2ccsc2c1Sc1cccc(Br)c1 [Io, 6-(3-Bromo-phenylsulfanyl)-4H-thieno-[3,2-b]pyrrole-5-carboxylic acid amide] |
| 357 nM | Cc1cc(C)cc(Sc2c(C(N)=O)[nH]c3ccsc23)c1 [Ip, 6-(3,5-Dimethylphenylsulfanyl)-4H-thieno[3,2-b]pyrrole-5-carboxylic acid amide] |
| 38 nM | COc1cccc(Sc2c(C(N)=O)[nH]c3ccsc23)c1 [Iq, 6-(3-Methoxy-phenylsulfanyl)-4H-thieno[3,2-b]pyrrole-5-carboxylic acid amide] |
| 331 nM | COc1ccccc1Sc1c(C(N)=O)[nH]c2ccsc12 [Ir, 6-(2-Methoxy-phenylsulfanyl)-4H-thieno[3,2-b]pyrrole-5-carboxylic acid amide] |
| 481 nM | NC(=O)c1[nH]c2ccsc2c1Sc1ccccc1C(F)(F)F [Is, 6-(2-Trifluoromethyl-phenylsulfanyl)-4H-thieno[3,2-b]pyrrole-5-carboxylic acid amide] |
| 425 nM | NC(=O)c1[nH]c2ccsc2c1Sc1ccccc1F [It, 6-(2-Fluoro-phenylsulfanyl)-4H-thieno[3,2-b]pyrrole-5-carboxylic acid amide] |
| 562 nM | NC(=O)c1[nH]c2ccsc2c1Sc1cccc(OC(F)(F)F)c1 [Iu, 6-(3-Trifluoromethoxy-phenylsulfanyl)-4H-thieno[3,2-b]pyrrole-5-carboxylic acid amide] |
| 4550 nM | NC(=O)c1[nH]c2ncsc2c1Sc1ccccc1 [Iv, 6-Phenylsulfanyl-4H-pyrrolo[2,3-d]thiazole-5-carboxylic acid amide] |
| 2030 nM | NC(=O)c1[nH]c2ncsc2c1Sc1cccc(F)c1 [Iw, 6-(3-Fluoro-phenylsulfanyl)-4H-pyrrolo[2,3-d]thiazole-5-carboxylic acid amide] |
| 1750 nM | NC(=O)c1[nH]c2ncsc2c1Sc1ccccn1 [Ix, 6-(Pyridin-2-ylsulfanyl)-4H-pyrrolo[2,3-d]thiazole-5-carboxylic acid amide] |
